From the supplement of paper PMC11061612

What was measured:
Assay in all cases: combination Emax (second highest fraction inhibited in the dose matrix, 72 h); higher = more inhibition; extreme values may be limits of the assay
[1] = test system: LS-1034 (Colorectal Carcinoma)
Procedure, shortened: (§1)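 Cell lines in DMEM/F12 or RPMI with 10% FBS were plated in 1536-well plates, held 24 hours at 37°C, 5% CO2, then given two-drug dose matrices for 72 hours (DMSO typically 0.2%). Viability was read by CellTiter-Glo 2.0 luminescence and scaled as inhibition from 0 (vehicle wells) to 1 (blank wells). Combination Emax is the second-highest inhibition in the matrix; Bliss excess is observed combination effect minus expected EA + EB − EA·EB, EA and EB being single-agent effects.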

[2] = test system: SK-CO-1 (Colorectal Carcinoma)
Procedure, shortened: as §1

[3] = test system: NAMALWA (Burkitt's Lymphoma)
Procedure, shortened: as §1

[4] = test system: C-33-A (Cervical Carcinoma)
Procedure, shortened: as §1

[5] = test system: MS-1 (Small Cell Lung Carcinoma)
Procedure, shortened: as §1

[6] = test system: BxPC-3 (Pancreatic Carcinoma)
Procedure, shortened: as §1

IST-MEL1 (Melanoma) = test system: IST-MEL1 (Melanoma)
Procedure, shortened: as §1

KALS-1 (Glioblastoma) = test system: KALS-1 (Glioblastoma)
Procedure, shortened: as §1

[7] = test system: RCC-JW (Kidney Carcinoma)
Procedure, shortened: as §1

GAK (Melanoma) = test system: GAK (Melanoma)
Procedure, shortened: as §1

[8] = test system: NCI-H3118 (Head and Neck Carcinoma)
Procedure, shortened: as §1

[9] = test system: IA-LM (Non-Small Cell Lung Carcinoma)
Procedure, shortened: as §1

[10] = test system: LCLC-103H (Non-Small Cell Lung Carcinoma)
Procedure, shortened: as §1

[11] = test system: ZR-75-30 (Breast Carcinoma)
Procedure, shortened: as §1

[12] = test system: MONO-MAC-6 (Acute Myeloid Leukemia)
Procedure, shortened: as §1

SK-N-SH (Neuroblastoma) = test system: SK-N-SH (Neuroblastoma)
Procedure, shortened: as §1

NCI-H226 (Mesothelioma) = test system: NCI-H226 (Mesothelioma)
Procedure, shortened: as §1

[13] = test system: HPAF-II (Pancreatic Carcinoma)
Procedure, shortened: as §1

[14] = test system: MDA-MB-415 (Breast Carcinoma)
Procedure, shortened: as §1

[15] = test system: SNU-423 (Hepatocellular Carcinoma)
Procedure, shortened: as §1

Row | Compound | combination Emax [1] | combination Emax [2] | combination Emax [3] | combination Emax [4] | combination Emax [5] | combination Emax [6] | combination Emax (IST-MEL1 (Melanoma)) | combination Emax (KALS-1 (Glioblastoma)) | combination Emax [7] | combination Emax (GAK (Melanoma)) | combination Emax [8] | combination Emax [9] | combination Emax [10] | combination Emax [11] | combination Emax [12] | combination Emax (SK-N-SH (Neuroblastoma)) | combination Emax (NCI-H226 (Mesothelioma)) | combination Emax [13] | combination Emax [14] | combination Emax [15]
1 | C[C@@H](Nc1cc(F)cc(F)c1)c1cc(C(=O)N(C)C)cc2c(=O)cc(N3CCOCC3)oc12 [AZD8186] + CC(=O)c1c(C)c2cnc(Nc3ccc(N4CCNCC4)cn3)nc2n(C2CCCC2)c1=O [Palbociclib] (first compound max 10 µM, 7x7, partner max 10 µM) | 0.438 | 0.749 | 0.616 | 0.353 | 0.295 | 0.347 | 0.545 | 0.38 | 0.588 | 0.448 | 0.568 | 0.311 | 0.476 | 0.336 | 0.654 | 0.492 | 0.297 | 0.466 | 0.794 | 0.454
2 | C[C@@H](Oc1cc(-c2cnn(C3CCNCC3)c2)cnc1N)c1c(Cl)ccc(F)c1Cl [Crizotinib] + CC1=C(C(=CC=C1)Cl)NC(=O)C2=CN=C(S2)NC3=CC(=NC(=N3)C)N4CCN(CC4)CCO [Dasatinib] (first compound max 10 µM, 7x7, partner max 2 µM) | 0.835 | 0.954 | 0.934 | 0.582 | 0.686 | 0.938 | 0.76 | 0.925 | 0.851 | 0.694 | 0.881 | 0.601 | 0.722 | 0.036 | 0.947 | 0.859 | 0.558 | 0.431 | 0.323 | 0.934
3 | C[C@@H](Oc1cc(-c2cnn(C3CCNCC3)c2)cnc1N)c1c(Cl)ccc(F)c1Cl [Crizotinib] + Cn1cnc2c(F)c(Nc3ccc(Br)cc3Cl)c(C(=O)NOCCO)cc21 [Selumetinib] (first compound max 10 µM, 7x7, partner max 10 µM) | 0.79 | 0.989 | 0.937 | 0.421 | 0.791 | 0.439 | 0.454 | 0.538 | 0.665 | 0.851 | 0.627 | 0.245 | 0.412 | 0.0695 | 0.991 | 0.854 | 0.393 | 0.687 | 0.275 | 0.823
4 | CS(=O)(=O)CCNCc1ccc(-c2ccc3ncnc(Nc4ccc(OCc5cccc(F)c5)c(Cl)c4)c3c2)o1 [Lapatinib] + Cn1cnc2c(F)c(Nc3ccc(Br)cc3Cl)c(C(=O)NOCCO)cc21 [Selumetinib] (first compound max 10 µM, 7x7, partner max 10 µM) | 0.727 | 0.886 | 0.419 | 0.55 | 0.489 | 0.909 | 0.543 | 0.575 | 0.988 | 0.722 | 0.653 | 0.318 | 0.309 | 0.807 | 0.437 | 0.398 | 0.228 | 0.877 | 0.389 | 0.508
5 | CS(=O)(=O)CCNCc1ccc(-c2ccc3ncnc(Nc4ccc(OCc5cccc(F)c5)c(Cl)c4)c3c2)o1 [Lapatinib] + NC1(c2ccc(-c3nc4ccn5c(=O)[nH]nc5c4cc3-c3ccccc3)cc2)CCC1 [MK-2206] (first compound max 10 µM, 7x7, partner max 10 µM) | 0.919 | 0.793 | 0.909 | 0.895 | 0.926 | 0.614 | 0.886 | 0.718 | 0.964 | 0.872 | 0.783 | 0.487 | 0.538 | 0.912 | 0.671 | 0.921 | 0.164 | 0.402 | 0.972 | 0.912
6 | O=C(c1cc(Cc2n[nH]c(=O)c3ccccc23)ccc1F)N1CCN(C(=O)C2CC2)CC1 [Olaparib] + CC1(C)CCC(CN2CCN(c3ccc(C(=O)NS(=O)(=O)c4ccc(NCC5CCOCC5)c([N+](=O)[O-])c4)c(Oc4cnc5[nH]ccc5c4)c3)CC2)=C(c2ccc(Cl)cc2)C1 [Venetoclax] (first compound max 10 µM, 7x7, partner max 1 µM) | 0.008 | 0.769 | 0.456 | 0.305 | 0.453 | 0.148 | 0.628 | 0.118 | 0.163 | 0.0703 | 0.153 | 0.155 | 0.155 | 0.158 | 0.249 | 0.545 | 0.0963 | 0.119 | 0.179 | 0.115
7 | O=C(c1cc(Cc2n[nH]c(=O)c3ccccc23)ccc1F)N1CCN(C(=O)C2CC2)CC1 [Olaparib] + CN(CC[C@H](CSC1=CC=CC=C1)NC2=C(C=C(C=C2)S(=O)(=O)NC(=O)C3=CC=C(C=C3)N4CCC(CC4)[C@H](C5=CC=CC=C5C6=CC=C(C=C6)Cl)O)S(=O)(=O)C(F)(F)F)CCO [AZD4320] (first compound max 10 µM, 7x7, partner max 1 µM) | 0.0945 | 0.949 | 0.396 | 0.386 | 0.636 | 0.148 | 0.171 | 0.156 | 0.787 | 0.146 | 0.155 | 0.328 | 0.224 | 0.149 | 0.431 | 0.688 | 0.105 | 0.796 | 0.553 | 0.236
